These results are taken from ChEMBL document CHEMBL1201862, “PubChem BioAssay data set” (2004).

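Test compounds were applied to cells in 96-well plates for 48 hours at 5 doses. Abbreviation: GI50, concentration required for 50% inhibition of growth.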 Calls of active or inactive are those of the source. No stated cut-off is given here; in the data, active = GI50 up to about 1.1 µM and inactive = higher.

Some test systems named below: COLO 205; MOLT-4; SNB-19; EKVX; KM12; MDA-MB-435; HCT-15; A549; PC-3; MDA-N; HCT-116; TK-10; K562; CCRF-CEM; MCF7; SW-620; NCI-H23; U-251; SK-MEL-28.
Assay in all cases: NCI tumour cell line growth inhibition, 48 h

For `c1ccc(CCCN2C3CCC2CN(CCOC(c2ccccc2)c2ccccc2)C3)cc1`, the GI50 was 1.68 µM (inactive) in the test with COLO 205; 8.43 µM (inactive) in the test on MOLT-4; 14.6 µM (inactive) with SNB-19; 7.46 µM (inactive) in the test on EKVX; 5.66 µM (inactive) in the test on KM12; 12.4 µM (inactive) with MDA-MB-435. Besides, the GI50 is 4.72 µM with HCT-15; 13.3 µM (inactive) in the test with A549; 6.43 µM (inactive) with PC-3; 13.2 µM (inactive) in the test with MDA-N; 7.05 µM (inactive) in the test with HCT-116; 12.5 µM (inactive) with TK-10. Moreover, the GI50 is 3.91 µM (inactive) in the test with K562; 9.82 µM (inactive) in the test on CCRF-CEM; 12.6 µM (inactive) in the test on MCF7; 15.6 µM (inactive) in the test on SW-620; 11.1 µM (inactive) in the test on NCI-H23; 8.04 µM (inactive) in the test with U-251. In addition, in the test on SK-MEL-28, the GI50 was 13.3 µM (inactive).

Turning to `Cc1ccc(C)c(NC(=O)C(Cc2c[nH]c3ccccc23)NC(=O)OCc2ccccc2)c1` (configuration not stated), the GI50 with COLO 205 was 13.2 µM (inactive); in the test with MOLT-4, 4.52 µM (inactive); in the test with SNB-19, 13.8 µM (inactive); with EKVX, 14.5 µM (inactive); with KM12 it was 16.5 µM (inactive); in the test with MDA-MB-435 it was 21.9 µM (inactive). Further, the GI50 in the test on HCT-15 was 20.9 µM; in the test with A549, 13.2 µM (inactive); with PC-3, 11.5 µM (inactive); in the test on MDA-N it was 29.3 µM (inactive); with HCT-116, 23 µM (inactive); with TK-10, 15.3 µM (inactive). Further, the GI50 is 12.7 µM (inactive) in the test on K562; 1.42 µM (inactive) with CCRF-CEM; 23.1 µM (inactive) in the test with MCF7; 15.1 µM (inactive) in the test with SW-620; 21.3 µM (inactive) in the test on NCI-H23; 17.1 µM (inactive) in the test with U-251. For the same molecule, the GI50 in the test with SK-MEL-28 was 25.8 µM (inactive).

With `COc1ccc(C2SC(=N)Nc3c2c(C)nn3C(=O)c2ccncc2)cc1` (configuration not stated), the GI50 in the test on COLO 205 was 57.7 µM (inactive); in the test with MOLT-4 it was 44.5 µM (inactive); in the test with SNB-19, > 100 µM (inactive); with EKVX, > 100 µM (inactive); in the test with KM12, > 100 µM (inactive); in the test on MDA-MB-435, 70.6 µM (inactive). For the same molecule, the GI50 in the test with HCT-15 is > 100 µM; in the test on A549, > 100 µM (inactive); in the test on PC-3, > 100 µM (inactive); with MDA-N it was > 100 µM (inactive); in the test on HCT-116, > 100 µM (inactive); in the test on TK-10, > 100 µM (inactive). The GI50 is 64.7 µM (inactive) in the test on K562; 29.4 µM (inactive) in the test on CCRF-CEM; 75.2 µM (inactive) in the test on MCF7; > 100 µM (inactive) in the test with SW-620; > 100 µM (inactive) in the test with NCI-H23; > 100 µM (inactive) with U-251. For the same molecule, in the test with SK-MEL-28, the GI50 is > 100 µM (inactive).

With `c1ccc(Cc2nc(Cc3n[nH]c(Cc4ccccc4)n3)n[nH]2)cc1`, the GI50 in the test with COLO 205, in the test on MOLT-4, with SNB-19, with EKVX, in the test on KM12 and in the test with MDA-MB-435 was > 100 µM (inactive) throughout. Further, the GI50 was > 100 µM in the test with HCT-15; > 100 µM (inactive) with A549; > 100 µM (inactive) with PC-3; > 100 µM (inactive) in the test on MDA-N; > 100 µM (inactive) in the test on HCT-116; > 100 µM (inactive) in the test on TK-10. The GI50 in the test on K562, in the test with CCRF-CEM, in the test on MCF7, in the test on SW-620, in the test with NCI-H23 and in the test with U-251 was > 100 µM (inactive) each time. The GI50 with SK-MEL-28 is > 100 µM (inactive).

`CCOc1ccc2c(c1)c(=O)c1c(NCCN(CC)CC)ccc3nnn2c31`: the GI50 in the test with COLO 205 was 33.9 µM (inactive); in the test with MOLT-4, 3.34 µM (inactive); in the test with SNB-19 it was > 79.8 µM (inactive); with EKVX, 83.2 µM (inactive); in the test on KM12 it was 14 µM (inactive); in the test with MDA-MB-435, 16.9 µM (inactive). Also, the GI50 is 16.9 µM in the test with HCT-15; > 39.5 µM (inactive) in the test on A549; 18.8 µM (inactive) in the test with PC-3; 17.5 µM (inactive) with MDA-N; > 25.4 µM (inactive) in the test on HCT-116; 16.7 µM (inactive) in the test on TK-10. In addition, the GI50 in the test with K562 is 18.2 µM (inactive); in the test on CCRF-CEM, 4.91 µM (inactive); in the test on MCF7, 12.3 µM (inactive); in the test on SW-620, 12.6 µM (inactive); in the test with NCI-H23 it was 14.9 µM (inactive); in the test on U-251 it was 19.7 µM (inactive). The GI50 in the test with SK-MEL-28 is > 40.4 µM (inactive).

Regarding `O=C(NC(Cc1c[nH]cn1)C(=O)N1CCCC1)C1CCCC1` (configuration not stated), the GI50 with COLO 205, in the test with MOLT-4, with SNB-19, in the test on EKVX, in the test with KM12 and in the test on MDA-MB-435 was > 100 µM (inactive) throughout. For the same molecule, the GI50 in the test with HCT-15 is > 100 µM; with A549 it was > 100 µM (inactive); in the test with PC-3 it was > 100 µM (inactive); in the test with MDA-N, > 100 µM (inactive); in the test on HCT-116, > 100 µM (inactive); in the test on TK-10 it was > 100 µM (inactive). The GI50 in the test on K562, with CCRF-CEM, in the test on MCF7, in the test on SW-620, in the test with NCI-H23 and in the test on U-251 was > 100 µM (inactive) in each case. Also, the GI50 with SK-MEL-28 was > 100 µM (inactive).

With `c1ccc(/N=C(\N2CCOCC2)N(CCN2CCOCC2)c2ccccc2)cc1`, the GI50 in the test on COLO 205, in the test on MOLT-4, with SNB-19, with EKVX, with KM12 and with MDA-MB-435 was > 100 µM (inactive) in each case. Besides, the GI50 in the test on HCT-15 was > 100 µM; with A549 it was > 100 µM (inactive); in the test with PC-3, > 100 µM (inactive); with MDA-N, > 100 µM (inactive); with HCT-116, 98.2 µM (inactive); in the test with TK-10 it was > 100 µM (inactive). In addition, the GI50 in the test on K562, with CCRF-CEM, with MCF7, in the test with SW-620, in the test on NCI-H23 and with U-251 was > 100 µM (inactive) each time. In addition, the GI50 in the test with SK-MEL-28 was > 100 µM (inactive).

In the case of `CN(CCC(=O)N1CC(CCl)c2ccc([N+](=O)[O-])cc21)CCC(=O)N1CC(CCl)c2ccc([N+](=O)[O-])cc21` (configuration not stated), the GI50 in the test with COLO 205 is 15.4 µM (inactive); with MOLT-4 it was 4.25 µM (inactive); with SNB-19, > 100 µM (inactive); in the test with EKVX, 12.7 µM (inactive); in the test on KM12, 4.72 µM (inactive); in the test on MDA-MB-435 it was 13.9 µM (inactive). Also, the GI50 with HCT-15 was 13.2 µM; in the test with A549, 36.6 µM (inactive); with PC-3, 6.52 µM (inactive); in the test on MDA-N, 15 µM (inactive); in the test with HCT-116, 12.6 µM (inactive); with TK-10 it was 10.4 µM (inactive). Besides, the GI50 with K562 was 14.3 µM (inactive); in the test with CCRF-CEM, 15.9 µM (inactive); in the test with MCF7, 11.4 µM (inactive); with SW-620 it was 15.6 µM (inactive); in the test with NCI-H23 it was 14.7 µM (inactive); in the test with U-251, 24.2 µM (inactive). The GI50 in the test on SK-MEL-28 was 15.5 µM (inactive).
